Assay results reported in article PMC10988555, “Exploiting Co(III)-Cyclopentadienyl Complexes To Develop Anticancer Agents” (Inorganic Chemistry, 2024).

Columns and labels:
A2780 cell line = experiment: Internalization of cobalt by ICP-AES; format: cell-based, human; details: A2780, 10× IC50, ICP-AES, cellular fraction
Method: Internalization of the cobalt complexes was evaluated by ICP-AES in the A2780 cell line. For this, the A2780 cell line was seeded in 25 cm^2 T-flasks at a density of 5 × 10^5 cells/T-flask and incubated for 24 h at 37 °C with 5% (v/v) CO2. […] Cells were then incubated for 3, 6, and 12 h at the same conditions as before and for 12 h at 4 °C. The culture media was recovered to a new tube (supernatant fraction) and cells were detached from the T-flask with 2 mL of TripLE Express (TE) (Gibco by life technologies) and centrifuged at 750 × g for 5 min. Then, fresh aqua regia was added to the supernatant tube and to the cellular fractions and incubated overnight at room temperature (RT) in the hood fume. Samples were delivered to Laboratório de Análises/LAQV and the levels of cobalt were evaluated by ICP-AES.

A2780 cells [1] = experiment: Cell fractioning and ICP-AES (cytosolic, mitochondrial, nuclear fractions); format: cell-based, human; details: A2780, 12 h, 10× IC50, 37 °C
Method: Internalization of the complexes in different cellular factions (cytosolic, mitochondrial, or nuclear) of A2780 cells was evaluated by using a cell fractionation kit (Abcam). Cells were seeded in a 24-well plate at a density of 2 × 10^5 cells/mL and incubated for 24 h at 37 °C with 5% (v/v) CO2. […] Cells were then incubated for 12 h at the same conditions as before. The culture media was recovered to a new tube (supernatant fraction) and cells were detached from the T-flask with 250 μL of TE (Gibco by life technologies). Then, we followed the instructions provided by the manufacturer of the cell fractionation kit (Abcam). At the end of the procedure, fresh aqua regia was added to the supernatant tube and to the cellular fractions and incubated overnight at room temperature (RT) in the hood fume. Samples were delivered to Laboratório de Análises/LAQV and the levels of cobalt were evaluated by ICP-AES.

[2] = tested on: HCT116 (human colorectal carcinoma) cell line; experiment: Antiproliferative activity, MTS assay, HCT116; format: cell-based; details: for IC50: 48 h exposure, MTS assay; for Selectivity index (SI), HCT116: IC50 fibroblasts/IC50 HCT116, values with * calculated taking fibroblast IC50 as 100 μM (minimal value)
Method: Human colorectal carcinoma cell line (HCT116), human breast cancer cell lines (MDA-MB-231 and MCF-7), and normal human primary dermal fibroblasts neonatal (PCS-201-010) cell line were grown in DMEM (Dulbecco’s modified Eagle’s medium) (Invitrogen Corp., Grand Island, NY, USA) supplemented with 10% (v/v) fetal bovine serum and 1% (v/v) antibiotic/antimycotic solution (Invitrogen Corp.). The human ovarian carcinoma (A2780) cell line was cultivated using RPMI (Roswell Park Memorial Institute) medium supplemented as in DMEM medium. The supplemented medium is named a complete medium. Cells were grown in an incubator with a humidified atmosphere at 5% (v/v) CO2 and 37 °C. All cell lines were purchased from ATCC (ATCC, American Type Culture Collection).
The evaluation of the cytotoxic potential of complexes 1–4 was obtained through in vitro measurements of the antiproliferative activity of these complexes. Cells were plated in 96-well plates at 7.5 × 10^4 cells/mL and incubated at 37 °C with 5% (v/v) CO2. After 24 h, the culture medium was replaced with fresh medium (100 μL) containing 0.1–50 μM of the different complexes and incubated for 48 h in tumor cell lines or containing 0.1–100 μM of the different complexes and incubated for 48 h in fibroblasts. […] The fibroblast cell line was used as a control of the cytotoxicity of the complexes for healthy cells. Cell viability was evaluated using Cell Titer 96 Aqueous Non-Radioactive Cell Proliferation Assay (Promega, Madison, WI, USA) using 3-(4,5-dimethylthiazol-2-yl)-5-(3-carboxymethoxyphenyl)-2-(4-sulfophenyl)-2H-tetrazolium inner salt (MTS), as described previously.[60] In metabolically active cells, enzymes present in the mitochondria catalyze a reaction in which NADPH/NADH is produced. These enzymes reduce the MTS reagent into a brownish product, Formazan, which can be quantified by measuring the absorbance at 490 nm. The quantity of formazan produced is directly proportional to the number of viable cells in the culture. This quantification was executed with a Biorad microplate reader Model 680 (Bio-Rad, Hercules, CA, USA). Half maximal inhibitory concentration (IC50) was calculated using GraphPad Prism 6 (GraphPadSoftware). We have calculated the ratio between the IC50 of fibroblasts and the IC50 of HCT116, A2780, MDA-MB-231, or MCF-7 cell lines for complexes 1–4 that was named herein as the Selectivity index (SI). To ensure the solubility of the complexes in all biological assays, complex solutions were freshly prepared and well solubilized before addition to the cells.

A2780 cells [3] = experiment: Cellular viability after 12 h at 37 °C versus 4 °C; format: cell-based, human; details: A2780, 12 h, 20× IC50
[4] = tested on: Caspase 8 in A2780 cell line; experiment: Caspase 8 activity assay; format: cell-based, human; details: A2780, IC50, 48 h, normalized to DMSO
Method: The A2780 cell line was seeded in 25 cm^2 T-flasks at a density of 2 × 10^6 cells/T-flasks. […] After that, cells were detached using cold PBS 1× and a cell scraper and centrifuged at 500 × g for 5 min. Then, we followed the instructions provided by the manufacturer of the Caspase-8 assay kit (Abcam). The data was obtained by measuring the absorbance of each sample at 400 nm and each value was normalized to the value of the DMSO sample.

[5] = Octanol-water partition coefficient, shake-flask method; format: physicochemical; details: room temperature
Method: The lipophilicity of the CoCp complexes was estimated by the shake-flask method.[54] Before the assays, n-octanol was vigorously mixed with distilled water for 24 h at room temperature to promote solvent saturation of both phases. After separating the phases, the complexes were dissolved in the n-octanol phase to obtain solutions 1.0 × 10^–5 to 2.5 × 10^–4 M. Then, each solution was equilibrated with water for 4 h in a mechanical shaker, at a phase ratio of 2 mL n-octanol:2 mL water. Afterward, the aqueous and octanol layers were carefully separated by centrifugation (5000 rpm, 10 min), and the UV–vis absorption spectra of the complexes were recorded in the n-octanol phase. For each sample, the concentration was determined by using a calibration curve in n-octanol. All experiments were performed in triplicate for each complex, being the averages used for calculation purposes. Finally, the values of the partition coefficients were calculated by resorting to the following eq (eq 1): [drawing 1] 1 where logPoct/water represents the octanol–water partition coefficient, [complex]oct represents the concentration of the complex in the n-octanol phase, and [complex]water represents the concentration of the complex in the water phase.

Row | Structure (SMILES) | Percentage of internalization, 3 h at 37 °C (A2780 cell line) | Percentage of internalization, 6 h at 37 °C (A2780 cell line) | Percentage of internalization, 12 h at 37 °C (A2780 cell line) | Percentage of internalization in cytosol (A2780 cells [1]) | Percentage of internalization in mitochondria (A2780 cells [1]) | Percentage of internalization in nucleus (A2780 cells [1]) | IC50 [2] | Selectivity index (SI), HCT116 [2] | cytotoxic activity at 4 °C compared to 37 °C (A2780 cells [3]) | caspase 8 activity relative to control [4] | logP (n-octanol/water partition coefficient) [5]
1 | Cc1ccnc(-c2cc(C)ccn2)c1.O=S(=O)([O-])C(F)(F)F.O=S(=O)([O-])C(F)(F)F.[Co+3].c1cc[cH-]c1.c1ccc(P(c2ccccc2)c2ccccc2)cc1 [Complex 2, [Co(η^5-C5H5)(PPh3)(Me2bipy)][(CF3SO3)2]] | 40.6% ± 2.0 | 50.7% ± 3.3 | 92.6% ± 6.5 | 36.9% ± 10.4 | 17.6% ± 6.5 | 38.1% ± 7.4 | 15.3 ± 0.2 µM | 6.5* | significantly lose some of their cytotoxic activity at 4 °C | 2 × | −0.56 ± 0.02
2 | O=S(=O)([O-])C(F)(F)F.O=S(=O)([O-])C(F)(F)F.[Co+3].c1cc[cH-]c1.c1ccc(P(c2ccccc2)c2ccccc2)cc1.c1cnc2c(c1)ccc1cccnc12 [Complex 3, [Co(η^5-C5H5)(PPh3)(phen)][(CF3SO3)2]] | 49.7% ± 3.5 | 31.9% ± 10.2 | 76.9% ± 15.9 | 30.6% ± 2.7 | 26.0% ± 11.4 | 20.3% ± 5.8 | 13.4 ± 0.1 µM | 7.5* | significantly lose some of their cytotoxic activity at 4 °C |  | −0.28 ± 0.05
3 | Nc1cc2cccnc2c2ncccc12.O=S(=O)([O-])C(F)(F)F.O=S(=O)([O-])C(F)(F)F.[Co+3].c1cc[cH-]c1.c1ccc(P(c2ccccc2)c2ccccc2)cc1 [Complex 4, [CoCp(PPh3)(NH2phen)][(CF3SO3)2]] | 33.7% ± 2.7 | 43.6% ± 5.8 | 89.3% ± 10.6 | 66.4% ± 14.7 | 4.5% ± 2.1 | 18.4% ± 4.9 | 14.1 ± 0.2 µM | 7.1* |  | 1.6 × | −0.22 ± 0.03
